# US20110112100A1, “Hepatitis C Virus Inhibitors” (priority 2009, published 2011)
# Counter-ions that a name gives are not always drawn. Like-named read-outs stand apart in the source and are kept apart here.
# Tests used:
# 1b (con1) replicon cells = assay: HCV 1b replicon inhibitory activity (luciferase, Britelite Plus); assay type: cell-based, hepatitis C virus; details: read-out: IC50 value (95% Confidence Intervals) pM Replicon 1B assay
# Method: (§1) Test compounds were solubilised to 4 mM in 100% DMSO. Dilutions were made to the desired starting concentration in 100% DMSO and then 1 in 3 dilutions made, again in 100% DMSO. 0.5 μl of each sample was added to 384-well assay plates. White Lumitrac (Greiner) plates were used for the 1a and 1b replicon assays and black, clear bottomed (Greiner) plates were used for the WST-1 cytotoxity assay.
# 1b (con1) replicon cells (pFK1389lucubineo/NS3-3′/ET/9B, licensed from Ralf Bartenschlager, University of Heidelberg) were resuspended to a concentration of 1.4×10^5 cells/ml by addition of pre-warmed medium (DMEM+10% FCS). 50 μl of this suspension was added to each well of a 384-well assay plate (Lumitrac, Greiner) already containing 0.5 μl of test compound.
# All plates were covered with gas permeable seals and incubated at 37° C., 5% CO2 for 48 hours. After 48 hours, the plate was removed from the incubator and left to cool to room temperature for 15-30 mins. 35 ul of reconstituted Lyophilised Britelite Plus Substrate (PerkinElmer, 6016767) to medium was added to each well. Luminescence was read after 1 min but before 15 mins on an EnVision (Perkin Elmer) plate reader. The half maximal effective concentration (1050) values were calculated by constructing log concentration-response curves for each compound.
# 1a-H77 replicon cells = assay: HCV 1a replicon inhibitory activity (Renilla luciferase); assay type: cell-based, hepatitis C virus; details: read-out: IC50 value (95% Confidence Intervals) pM Replicon 1A assay
# Method: as §1
# 1a-H77 replicon cells (licensed from Apath LLC) were resuspended to a concentration of 1.4×10^5 cells/ml by addition of pre-warmed assay medium (Dulbecco's Modified Eagle's Medium (DMEM)+10% fetal calf serum (FCS)). 50 μl of this suspension was added to each well of a 384-well assay plate (Lumitrac, Greiner), already containing 0.5 μl of test compound.
# All plates were covered with gas permeable seals and incubated at 37° C., 5% CO2 for 48 hours. After 48 hours, the assay plate was removed from the incubator and left to cool to room temperature for 15 to 30 mins. Medium was removed from the wells and 5 μl 1× lysis buffer (from Promega's Renilla Luciferase assay kit, E2820) was added to each well. The plate was incubated at room temperature for 15 mins then 15 μl 1×Assay Substrate (from the same kit) was added to each well. Luminescence was read immediately using an EnVision (Perkin Elmer) plate reader. The half maximal effective concentration (1050) values were calculated by constructing log concentration-response curves for each compound.
# [1] = geometric mean, 95% confidence intervals in parentheses, 48 hours, medium with 10% FCS
Compound,"IC50 (1b (con1) replicon cells; Hepatitis C virus, 48 h) [pM]","IC50 (1a-H77 replicon cells; Hepatitis C virus, 48 h) [pM]",IC50 (1b (con1) replicon cells; [1]) [pM],IC50 (1a-H77 replicon cells; [1]) [pM]
"COC(=O)N[C@H](C(=O)N1CCC[C@H]1c1nc(-c2ccc(-c3cnc4cc(-c5cnc([C@@H]6CCCN6C(=O)CNC(=O)c6cc(C)on6)[nH]5)ccc4n3)cc2)c[nH]1)C(C)C [Example 42, Methyl {(2S)-3-methyl-1-[(2S)-2-{4-[4-(6-{2-[(2S)-1-{N-[(5-methylisoxazol-3-yl)carbonyl]glycyl}pyrrolidin-2-yl]-1H-imidazol-5-yl}quinoxalin-2-yl)phenyl]-1H-imidazol-2-yl}pyrrolidin-1-yl]-1-oxobutan-2-yl}carbamate trifluoroacetic acid salt]",247,2870,,
"COC(=O)N[C@H](C(=O)N1CCC[C@H]1c1nc(-c2ccc(-c3cnc4cc(-c5cnc([C@@H]6CCCN6C(=O)CNC(=O)c6ccc7[nH]cnc7c6)[nH]5)ccc4n3)cc2)c[nH]1)C(C)C [Example 43, Methyl {(2S)-1-[(2S)-2-(4-{4-[6-(2-{(2S)-1-[N-(1H-benzimidazol-5-ylcarbonyl)glycyl]pyrrolidin-2-yl}-1H-imidazol-5-yl)quinoxalin-2-yl]phenyl}-1H-imidazol-2-yl)pyrrolidin-1-yl]-3-methyl-1-oxobutan-2-yl}carbamate trifluoroacetic acid salt]",388,787,,
"COC(=O)N[C@H](C(=O)N1CCC[C@H]1c1nc(-c2ccc(-c3cnc4cc(-c5cnc([C@@H]6CCCN6C(=O)CNC(=O)c6[nH]nc7ccccc67)[nH]5)ccc4n3)cc2)c[nH]1)C(C)C [Example 44, Methyl {(2S)-1-[(2S)-2-(4-{4-[6-(2-{(2S)-1-[N-(2H-indazol-3-ylcarbonyl)glycyl]pyrrolidin-2-yl}-1H-imidazol-5-yl)quinoxalin-2-yl]phenyl}-1H-imidazol-2-yl)pyrrolidin-1-yl]-3-methyl-1-oxobutan-2-yl} carbamate trifluoroacetic acid salt]",,,100,3510
"COC(=O)N[C@H](C(=O)N1CCC[C@H]1c1nc(-c2ccc(-c3cnc4cc(-c5cnc([C@@H]6CCCN6C(=O)CNC(=O)CN6C(=O)CCc7ccccc76)[nH]5)ccc4n3)cc2)c[nH]1)C(C)C [Example 45, Methyl {(2S)-3-methyl-1-oxo-1-[(2S)-2-{4-[4-(6-[2-[(2S)-1-{N-[(2-oxo-3,4-dihydroquinolin-1(2H)-yl)acetyl]glycyl}pyrrolidin-2-yl]-1H-imidazol-5-yl}quinoxalin-2-yl)phenyl]-1H-imidazol-2-yl}pyrrolidin-1-yl]butan-2-yl}carbamate trifluoroacetic acid salt]",507,20000,,
"COC(=O)N[C@H](C(=O)N1CCC[C@H]1c1nc(-c2ccc(-c3cnc4cc(-c5cnc([C@@H]6CCCN6C(=O)[C@@H](C)NC(C)=O)[nH]5)ccc4n3)cc2)c[nH]1)C(C)C [Example 46, Methyl {(2S)-1-[(2S)-2-{4-[4-(6-(2-[(2S)-1-(N-acetyl-D-alanyl)pyrrolidin-2-yl]-1H-imidazol-5-yl}quinoxalin-2-yl)phenyl]-1H-imidazol-2-yl}pyrrolidin-1-yl]-3-methyl-1-oxobutan-2-yl}carbamate trifluoroacetic acid salt]",44.2,803,,
"COC(=O)N[C@@H](COCc1ccccc1)C(=O)N1CCC[C@H]1c1ncc(-c2ccc3nc(-c4ccc(-c5c[nH]c([C@@H]6CCCN6C(=O)[C@@H](NC(=O)OC)C(C)C)n5)cc4)cnc3c2)[nH]1 [Example 48, Methyl {(2S)-1-[(2S)-2-{4-[4-(6-{2-[(2S)-1-{(2S)-3-(benzyloxy)-2-[(methoxycarbonyl)amino]propanoyl}pyrro-lidin-2-yl]-1H-imidazol-5-yl}quinoxalin-2-yl)phenyl]-1H-imidazol-2-yl}pyrrolidin-1-yl]-3-methyl-1-oxobutan-2-yl}carbamate carbamate trifluoroacetic acid salt]",,,6.84,27.8
"COC(=O)N[C@H](C(=O)N1CCC[C@H]1c1nc(-c2ccc(-c3cnc4cc(-c5cnc([C@@H]6CCCN6C(=O)C6(NC(=O)OC)CCC6)[nH]5)ccc4n3)cc2)c[nH]1)C(C)C [Example 50, Methyl {(2S)-1-[(2S)-2-{4-[4-(6-{2-[(2S)-1-({1-[(methoxycarbonyl)amino]cyclobutyl}carbonyl)pyrrolidin-2-yl]-1H-imidazol-5-yl}quinoxalin-2-yl)phenyl]-1H-imidazol-2-yl}pyrrolidin-1-yl]-3-methyl-1-oxobutan-2-yl}carbamate trifluoroacetic acid salt]",77.2,356,,
"COC(=O)N[C@H](C(=O)N1CCC[C@H]1c1nc(-c2ccc(-c3cnc4cc(-c5cnc([C@@H]6CCCN6C(=O)C(C)(C)NC(=O)OC)[nH]5)ccc4n3)cc2)c[nH]1)C(C)C [Example 51, Methyl {(2S)-1-[(2S)-2-{4-[4-(6-{2-[(2S)-1-{2-[(methoxycarbonyl)amino]-2-methylpropanoyl}pyrrolidin-2-yl]-1H-imidazol-5-yl}quinoxalin-2-yl)phenyl]-1H-imidazol-2-yl}pyrrolidin-1-yl]-3-methyl-1-oxobutan-2-yl}carbamate trifluoroacetic acid salt]",144,1850,,
"COC(=O)N[C@H](C(=O)N1CCC[C@H]1c1nc(-c2ccc(-c3cnc4cc(-c5cnc([C@@H]6CCCN6C(=O)[C@@H](C)NC(=O)OC)[nH]5)ccc4n3)cc2)c[nH]1)C(C)C [Example 53, Methyl {(2S)-1-[(2S)-2-(4-{4-[6-(2-{(2S)-1-[N-(methoxycarbonyl)-D-alanyl]pyrrolidin-2-yl}-1H-imidazol-5-yl)quinoxalin-2-yl]phenyl}-1H-imidazol-2-yl)pyrrolidin-1-yl]-3-methyl-1-oxobutan-2-yl} carbamate trifluoroacetic acid salt]",,,21.1,646
"COC(=O)N[C@H](C(=O)N1CCC[C@H]1c1nc(-c2ccc(-c3cnc4cc(-c5cnc([C@@H]6CCCN6C(=O)[C@@H](CC(C)C)NC(=O)OC)[nH]5)ccc4n3)cc2)c[nH]1)C(C)C [Example 54, Methyl {(2R)-1-[(2S)-2-{5-[2-(4-{2-[(2S)-1-{(2S)-2-[(methoxycarbonyl)amino]-3-methylbutanoyl}pyrrolidin-2-yl]-1H-imidaozl-4-yl}phenyl)quinoxalin-6-yl]-1H-imidazol-2-yl}pyrrolidin-1-yl]-4-methyl-1-oxopentan-2-yl}carbamate trifluoroacetic acid salt]",,,14.9,61.2
"CCC[C@H](NC(=O)OC)C(=O)N1CCC[C@H]1c1ncc(-c2ccc3nc(-c4ccc(-c5c[nH]c([C@@H]6CCCN6C(=O)[C@@H](NC(=O)OC)C(C)C)n5)cc4)cnc3c2)[nH]1 [Example 55, Methyl {(2S)-1-[(2S)-2-{5-[2-(4-{2-[(2S)-1-{(2S)-2-[(methoxycarbonyl)amino]-3-methylbutanoyl}pyrrolidin-2-yl]-1H-imidazol-4-yl}phenyl)quinoxalin-6-yl]-1H-imidazol-2-yl}pyrrolidin-1-yl]-1-oxopentan-2-yl}carbamate trifluoroacetic acid salt]",8.85,18.1,,
"COC(=O)N[C@@H](C)C(=O)N1CCC[C@H]1c1ncc(-c2ccc3nc(-c4ccc(-c5c[nH]c([C@@H]6CCCN6C(=O)[C@@H](NC(=O)OC)C(C)C)n5)cc4)cnc3c2)[nH]1 [Example 57, Methyl {(2S)-1-[(2S)-2-(4-{4-[6-(2-{(2S)-1-[N-(methoxycarbonyl)-L-alanyl]pyrrolidin-2-yl}-1H-imidazol-5-yl)quinoxalin-2-yl]phenyl}-1H-imidazol-2-yl)pyrrolidin-1-yl]-3-methyl-1-oxobutan-2-yl} carbamate trifluoroacetic acid salt]",,,21.9,21.8
